Experiment [1] concerns the target X1s1 RNA (SEQ ID NO: 3), synthetically derived from the predicted structures. The experiment in a line: Fluorescence binding measurements, X1s1 RNA. As to conditions: K1 - high affinity; footnote b: ligand is 6'N4-pyreneacetyl tobramycin; read-out: Dissociation Constants K1(PYT). The method, then:
(§1) The binding of tobramycin to two cloned RNAs X1 (SEQ ID NO:2) and J6 (SEQ ID NO:5), representative of both classes of consensus sequences, was measured using the fluorescence techniques described in the exemplification.
(§2) *synthetically derived from the predicted structures
(§3) Steady state fluorescence measurements were performed on a double beam fluorescence spectrometer (Perkin-Elmer Model 512, Norwalk, Conn.). The excitation wavelength was 341 nm. All measurements were done at 20° C. in 140 mM NaCl, 5 mM KCl, 1 mM CaCl2, 1 mM MgCl2, and 20 mM HEPES, pH 7.4. The KD of the PYT and the RNA aptamer was calculated by the curve fitting of the fluorescence intensity as a function of RNA concentration, using the following equation
(§4) Competition binding measurements of antibiotics with RNA and PYT were performed at constant concentrations of PYT and RNA by monitoring fluorescence intensity changes as a function of changing concentrations of the antibiotics (a standard fluorescence curve). The KD s for the antibiotics were calculated by the curve fitting of the fluorescence intensity of PYT as a function of antibiotic concentration, using the following equation: […]

Experiment [2] relates to RNA pool transcribed from DNA after the sixth selection, bound to tobramycin affinity column. The experiment in a line: Elution of bound RNA from tobramycin affinity column. The format is binding. As to conditions: 10 column volumes of selection buffer containing 50 mM D-glucosamine. An excerpt:
Elution patterns of the RNA from the columns are shown in FIG. 4 for the second and sixth selections. Over 6 cycles of selection, the percentages of RNA specifically eluted with tobramycin were <0.1%, 3.0%, 2.9%, 26%, 55%, and 82%. […] The RNA pool transcribed from DNA after the sixth selection could not be eluted from the affinity column, even after 100 column volumes of selection buffer.
An N-hydroxysuccinimide Affi-Gel affinity column (Bio-Rad, Hercules, Calif.) was derivatized with either 20 μmoles or 0.075 μmoles tobramycin per ml of gel to generate the affinity columns. Excess N-hydroxysuccinimide linkages were blocked by adding 1M ethanolamine. The resulting column served as the support for the RNA selections. The tobramycin concentration on column was estimated as about 15 mM. Selections were performed in 1 ml column volumes in a buffer (selection buffer) containing 140 mM NaCl, 5 mM KCl, 1 mM CaCl2, 1 mM MgCl2, and 20 mM Tris acetate, pH 7.4 (Bock et al. (1992) Nature 355: 564-566). A 1 ml Affi-Gel 10 pre-column treated with ethanolamine was used in all selections.
The original double stranded DNA pool was constructed by large scale PCR amplification of the synthesized 109mer random DNA pool (Oligos, Etc., Inc., Wilsonville, Oreg.) containing 60 random nucleotides. […]

For experiment [3], the system named is W13 RNA having SEQ ID NO:1. Briefly: Fluorescence (PYT quenching) titration and competition binding to W13 RNA. Particulars: for competition with PYT binding (in words): fluorescence competition assay. The method, then:
To study the binding behavior of clone W13, a fluorescently labelled pyrene-conjugated tobramycin derivative "PYT" was prepared.
For competitive binding studies, different concentrations of antibiotic (glucosamine (0-10 mM), erythromycin (0-6 mM), gentamicin C (0-700 μM), or neomycin B (0-650 μM)), were mixed with constant concentrations of RNA (300 nM W13) and PYT (150 nM), in Binding buffer (140 mM NaCl, 5 mM KCl, 1 mM MgCl2, 1 mM CaCl2, 20 mM HEPES, pH 7.4), 750 μl total volume, for 1-5 min. at 20° C. in a semimicro-cell cuvette. The fluorescence was measured on a Perkin-Elmer Model 512 double beam fluorescence spectrophotometer. The excitation wavelength used was 341 nm. The intensities of fluorescence emission at 380 nm were used to calculate dissociation constants. Generally 8 to 10 points were used for calculation.
as §3
(assuming a 1:1 complex): I=Io +0.5Δε ([PYT]o
-(([PYT]o +[RNA]o KI)^2 -4[PYT]o [RNA]o)^0.5)
Competition binding measurements of antibiotics with RNA and PYT were performed at constant concentrations of PYT and RNA by monitoring fluorescence intensity changes as a function of changing concentrations of the antibiotics (a standard fluorescence curve). The KD s for the antibiotics were calculated by the curve fitting of the fluorescence intensity of PYT as a function of antibiotic concentration, using the following equation:
I=Io +Δε[PYT.circle-solid.RNA]
[PYT.circle-solid.RNA]=0.5(([PYT]o +[RNA]o)([RNA]o
+KD)+KI ([T]o +[RNA]o +KD)-((([PYT]o
+[RNA]o)([RNA]o +KD)+KI ([T]o +[RNA]o
+KD))^2 -4([RNA]o +KD) [PYT]o [RNA]o
([RNA]o +KD))^0.5)([RNA]o +KD) (equation 2)
KD and KI are the dissociation constants for the antibiotic and PYT respectively.
[T]o is the total concentration of antibiotic added. Measurements were taken at least twice for each measured KD.

For experiment [4], the target named is random selected RNA pool (low stringency tobramycin column). Briefly: Fluorescence assay, average binding of the random selected RNA pool. Particulars: overall selected pool mixture. The method, then:
To determine whether the W13 RNA clone is representative of the average binding capacity of the random selected RNA pool, the average KD values for the random selected pool were measured. […] Therefore, the W13 RNA is representative of the average binding capacity of the random selected pool.
as §3, §4

For a further experiment, the target named is J6 RNA (SEQ ID NO:5). The experiment in a line: Fluorescence binding measurements, J6 RNA. As to conditions: K1 - high affinity; fluorescent ligand per footnote a/b; read-out: Dissociation Constants K1(PYT). The method, then:
as §1, §3, §4

Experiment [5] addresses J6a1 RNA (SEQ ID NO: 5), synthetically derived from the predicted structures. Briefly: Fluorescence binding measurements, J6a1 RNA. Particulars: K1 - high affinity; fluorescent ligand per footnote a/b; read-out: Dissociation Constants K1(PYT). The method, then:
as §1, §2, §3, §4

The target of experiment [6] is clone W13 RNA (SEQ ID NO:1), tobramycin-selected RNA aptamer. The experiment in a line: Equilibrium dialysis binding to clone W13 RNA. Particulars: equilibrium dialysis, direct; read-out: KD. The method, then:
One of these RNAs, clone W13 (SEQ ID NO:1) was chosen for quantitative studies to determine the specificity of its binding to RNA. […] The dissociation constant for tobramycin was determined to be 3 μM by competition studies with ^3 H-acetyl tobramycin. These values are close to those measured for tobramycin and ^3 H-acetyl tobramycin binding to ribosomal targets (LeGoffic et al. (1979) Eur. J. Biochem. 102: 73-81).
Equilibrium dialysis measurements were performed according to the procedure of Lorsch et al. (Biochem. (1994) 33: 973-982).
On the technique in general: In equilibrium dialysis free small molecules cross a membrane that holds back macromolecules.

The next experiment deals with RRE region of HIV RNA. The experiment in a line: Fluorescence binding and competitive binding to RRE RNA. Particulars: competition, 100 nM RNA, 15 nM fluorescent tobramycin, 20° C., pH 7.4; read-out: Dissociation Constant (KD) RRE RNA. The method, then: In order to quantitatively determine whether fluorescently labelled tobramycin and other antibiotics bind directly to the RRE region and/or to other regions of the HIV RNA, and with what affinity, the RRE and TAR regions of HIV RNA were prepared and used in the method of the invention as target RNAs.
For binding studies, different concentrations of RRE RNA (from 0 to 300 nm) were mixed with a constant concentration (15 nM) PYT in Binding buffer (140 mM NaCl, 1 mM MgCl2, 20 mM HEPES, pH 7.4), 2 ml total volume, for 1-5 min. at 20° C. in a semimicro-cell cuvette. The fluorescence was measured on a Perkin-Elmer Model 512 double beam fluorescence spectrophotometer. The excitation wavelength used was 330 nm. The intensities of fluorescence emission at 390 nm were used to calculate dissociation constants. Generally 8 to 12 points were used for calculation.
In other competitive binding studies, TAR or RRE RNA was added at a constant concentration of 100 nM±5% and PYT at 15 nM. Different concentrations of competitive antibiotic (tobramycin (o-60 μM), gentamicin C (0-100 μM), neomycin B (0-4 μM), or lividomycin A (0-100 μM) or Rev protein (0-6 μM) were mixed with constant concentrations of RNA (100 nM TAR or RRE) and C1PYT (15 nM), in Binding buffer (140 mM NaCl, 5 mM KCl, 1 mM MgCl2, 20 mM HEPES, pH 7.4), 2 ml total volume, for 1-5 min. at 20° C. in a semimicrocell cuvette. The fluorescence was measured on a Perkin-Elmer Model 512 double beam fluorescence spectrophotometer. The excitation wavelength used was 330 nm. The intensities of fluorescence emission at 390 nm were used to calculate dissociation constants. Generally 8 to 12 points were used for calculation.
Wild type and mutant RRE RNAs were transcribed in vitro by T7 RNA polymerase using synthetic oligonucleotide templates, as described by Milligan et al. (Meth. Enzymol. (1989) 180: 51-62).
as §4

The mark [7] stands for this setting: fluorescence, competition with PYT (150 nM PYT, 300 nM W13), 20° C., pH 7.4, N.B. = no measurable binding.

The source of these data is patent publication US5593835A, “Methods and kits for RNA binding compounds” (President and Fellows of Harvard College, priority 1995, dated 1997).

Take `N[C@@H]1[C@@H](O)[C@@H](O[C@@H]2[C@@H](O)[C@H](O[C@H]3O[C@H](CNC(=O)Cc4ccc5ccc6cccc7ccc4c5c67)[C@@H](O)C[C@H]3N)[C@@H](N)C[C@H]2N)O[C@H](CO)[C@H]1O` [6'N4-pyreneacetyl tobramycin, 6'-N-4-pyreneacetyl tobramycin]: the Kd in experiment [1] is 65.1 ± 7.4 nM.
On to `N[C@H]1C(O)O[C@H](CO)[C@@H](O)[C@@H]1O` (stereo partly drawn) [D-glucosamine], for which the “elution of bound RNA from tobramycin affinity column (in words)” value in experiment [2] is on record as “did not cause any bound RNA to be eluted”. Besides, the “competition with PYT binding (in words)” value in experiment [3] is reported as “did not measurably compete with PYT binding”. Further, in experiment [3] (setting [7]), the “KD (μM)” value is on record as “N.B”.
For `N[C@@H]1[C@@H](O)[C@@H](O[C@@H]2[C@@H](O)[C@H](O[C@H]3O[C@H](CNC(=O)CCCc4ccc5ccc6cccc7ccc4c5c67)[C@@H](O)C[C@H]3N)[C@@H](N)C[C@H]2N)O[C@H](CO)[C@H]1O` [PYT, 6'-N-4-pyrenebutyryl tobramycin], the Kd was 52 ± 8 nM in experiment [4]; 20 ± 4 nM in experiment [3] (fluorescence intensity of PYT as function of RNA concentration, 1:1 complex, 20° C., pH 7.4); 20 ± 7 nM in experiment [3] (setting [7]); 5.38 ± 0.46 nM at J6 RNA (SEQ ID NO:5); 286 ± 10 nM in experiment [5]. For the same compound, in experiment [3] (ratio of KD values, PYT vs tobramycin), the “times more tightly bound than tobramycin” value is given as “more than 200 times”.
For the compound `CC(=O)NCC1OC(OC2C(N)CC(N)C(OC3OC(CO)C(O)C(N)C3O)C2O)C(N)CC1O` (stereo not shown) [^3 H-acetyl tobramycin, 6-N-^3 H-Acetyl Tobramycin], the Kd in experiment [6] stood at 1300 nM.
In the case of `CC[C@H]1OC(=O)[C@H](C)[C@@H](O[C@H]2C[C@@](C)(OC)[C@@H](O)[C@H](C)O2)[C@H](C)[C@@H](O[C@@H]2O[C@H](C)C[C@H](N(C)C)[C@H]2O)[C@](C)(O)C[C@@H](C)C(=O)[C@H](C)[C@@H](O)[C@]1(C)O` [erythromycin], the “competition with PYT binding (in words)” value in experiment [3] is “only weakly inhibited PYT binding”. The compound also yielded a Kd in experiment [3] (setting [7]) of 505000 ± 25000 nM.
Regarding `NC[C@@H]1O[C@H](O[C@H]2[C@@H](O)[C@H](O[C@@H]3[C@@H](O)[C@H](N)C[C@H](N)[C@H]3O[C@H]3O[C@H](CO)[C@@H](O)C[C@H]3N)O[C@@H]2CO)[C@H](N)[C@@H](O)[C@@H]1O[C@H]1O[C@H](CO)[C@@H](O)[C@H](O)[C@@H]1O` [lividomycin-A, lividomycin A], the Kd at RRE region of HIV RNA came to 11900 ± 330 nM.
Take `NC[C@@H]1O[C@H](O[C@H]2[C@@H](O)[C@H](O[C@@H]3[C@@H](O)[C@H](N)C[C@H](N)[C@H]3O[C@H]3O[C@H](CN)[C@@H](O)[C@H](O)[C@H]3N)O[C@@H]2CO)[C@H](N)[C@@H](O)[C@@H]1O` [neomycin B]: on RRE region of HIV RNA, the Kd is 419 ± 3.8 nM. Also, in experiment [3], the “competition with PYT binding (in words)” value was “potent inhibitors of binding”.
Turning to gentamicin, the Kd at RRE region of HIV RNA turned out to be 10800 ± 680 nM; in experiment [3] (setting [7]), 4700 ± 4000 nM. Besides, in experiment [3], the “competition with PYT binding (in words)” value is recorded as “potent inhibitors of binding”.
